{
  "source": "patent US20080119510A1",
  "about": "“Substituted Imidazo [4,5-B] Pyridines As Inhibitors Of Gastric Acid Secretion” (Altana Pharma AG, priority 2004, published 2008)",
  "data": [
    {"tested_on": "pentagastrin-stimulated acid secretion of the perfused rat stomach", "experiment": "Secretion-inhibiting action on the perfused rat stomach (pentagastrin-stimulated acid secretion)", "format": "in vivo", "settings": "anesthetized CD rat, dose 3.0 μmol/kg i.d.", "excerpt": "In Table A which follows, the influence of the compounds of the formula 1 according to the invention on the pentagastrin-stimulated acid secretion of the perfused rat stomach after intraduodenal administration in vivo is shown.\nThe abdomen of anesthetized rats (CD rat, female, 200-250 g; 1.5 g/kg i.m. urethane) was opened after tracheotomy by a median upper abdominal incision and a PVC catheter was fixed transorally in the esophagus and another via the pylorus such that the ends of the tubes just projected into the gastric lumen. The catheter leading from the pylorus led outward into the right abdominal wall through a side opening.\nAfter thorough rinsing (about 50-100 ml), warm (37° C.) physiological NaCl solution was continuously passed through the stomach (0.5 ml/min, pH 6.8-6.9; Braun-Unita I). The pH (pH meter 632, glass electrode EA 147; φ=5 mm, Metrohm) and, by titration with a freshly prepared 0.01 N NaOH solution to pH 7 (Dosimat 665 Metrohm), the secreted HCl were determined in the effluent in each case collected at an interval of 15 minutes.\nThe gastric secretion was stimulated by continuous infusion of […] (=1.65 ml/h) of i.v. pentagastrin (left femoral vein) about 30 min after the end of the operation (i.e. after determination of 2 preliminary fractions). The substances to be tested were administered intraduodenally in a 2.5 ml/kg liquid volume 60 min after the start of the continuous pentagastrin infusion. The body temperature of the animals was kept at a constant 37.8-38° C. by infrared irradiation and heat pads (automatic, stepless control by means of a rectal temperature sensor).", "units": {"Inhibition of acid secretion (%)": "%"}, "values": [
      {"compound": "CCc1cccc(C)c1CNc1ccnc2c1nc(C)n2C", "note": "[Example 1, 7-(2-Ethyl-6-methylbenzyl)amino-2,3-dimethyl-3H-imidazo[4,5-b]pyridine]", "Inhibition of acid secretion (%)": ">30"},
      {"compound": "CCc1cccc(C)c1CNc1cc(C(=O)N(C)C)nc2c1nc(C)n2C", "note": "[Example 2, 5-(Dimethylaminocarbonyl)-7-(2-ethyl-6-methylbenzyl)amino-2,3-dimethyl-3H-imidazo[4,5-b]pyridine]", "Inhibition of acid secretion (%)": ">30"},
      {"compound": "CCc1cccc(C)c1CNc1cc(C(N)=O)nc2c1nc(C)n2C", "note": "[Example 3, 5-(Aminocarbonyl)-7-(2-ethyl-6-methylbenzyl)amino-2,3-dimethyl-3H-imidazo[4,5-b]pyridine]", "Inhibition of acid secretion (%)": ">30"},
      {"compound": "CCc1cccc(C)c1CNc1cc(C(=O)NCCO)nc2c1nc(C)n2C", "note": "[Example 5, 7-(2-Ethyl-6-methylbenzyl)amino-5-(2-hydroxyethylaminocarbonyl)-2,3-dimethyl-3H-imidazo[4,5-b]pyridine]", "Inhibition of acid secretion (%)": ">30"},
      {"compound": "CCc1cccc(C)c1CNc1cc(OC)nc2c1nc(C)n2C", "note": "[Example 6, 7-(2-Ethyl-6-methylbenzyl)amino-5-methoxy-2,3-dimethyl-3H-imidazo[4,5-b]pyridine]", "Inhibition of acid secretion (%)": ">30"}
    ]},
    {"tested_on": "not given", "experiment": "not given", "settings": "not given", "units": {"melting point": "°C"}, "values": [
      {"compound": "CCc1cccc(C)c1CNc1ccnc2c1nc(C)n2C", "note": "[Example 1, 7-(2-Ethyl-6-methylbenzyl)amino-2,3-dimethyl-3H-imidazo[4,5-b]pyridine]", "melting point": "105 to 109"},
      {"compound": "CCc1cccc(C)c1CNc1cc(C(=O)O)nc2c1nc(C)n2C", "note": "[Example 10, 7-(2-ethyl-6-methylbenzyl)amino-2,3-dimethyl-3H-imidazo[4,5-b]pyridine-5-carboxylic Acid]", "melting point": "235 to 238"}
    ]}
  ]
}
